The values below come from PMC9945734 (BMC Medicine, 2023).

Like-named read-outs stand apart in the source and are kept apart here.

The test relates to PC-3-KQ cells. In words: 3D spheroid invasion assay and screening of FDA-approved drugs. In kind it is cell-based, human. On the set-up: activity: dose or concentration left out as unconfirmed. In a few lines: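 Cells were clustered into spheroids by centrifugation and grown 3 days, then embedded in matrigel-medium containing drug on day 4 and cultured another 3 days. Drugs were screened at 10 μM first, then at 0–10 μM, in duplicate wells. Invasion area is total area minus core sphere area from phase-contrast images.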

Where [1] appears, read: Homo sapiens, 72 h, 0.01 μM (first column so headed), secondary screening of 87 hit compounds (Table S1), compared to vehicle control, read-out: Invasion rates (%) of each drug’s multiple concentrations.
Where [2] appears, read: Homo sapiens, 72 h, 0.01 μM (second column so headed), secondary screening of 87 hit compounds (Table S1), compared to vehicle control, read-out: Invasion rates (%) of each drug’s multiple concentrations.
Where [3] appears, read: Homo sapiens, 72 h, 0.1 μM, secondary screening of 87 hit compounds (Table S1), compared to vehicle control, read-out: Invasion rates (%) of each drug’s multiple concentrations.
[4] abbreviates: Homo sapiens, 72 h, 1 μM, secondary screening of 87 hit compounds (Table S1), compared to vehicle control, read-out: Invasion rates (%) of each drug’s multiple concentrations.
The mark [5] stands for this setting: Homo sapiens, 72 h, 10 μM, secondary screening of 87 hit compounds (Table S1), compared to vehicle control, read-out: Invasion rates (%) of each drug’s multiple concentrations.
Where [6] appears, read: 0.01 μM (first column so headed), secondary screening of 87 hit compounds (Table S1), compared to vehicle control.
[7] abbreviates: 0.01 μM (second column so headed), secondary screening of 87 hit compounds (Table S1), compared to vehicle control.
Where [8] appears, read: 0.1 μM, secondary screening of 87 hit compounds (Table S1), compared to vehicle control.
[9] abbreviates: 1 μM, secondary screening of 87 hit compounds (Table S1), compared to vehicle control.
The mark [10] stands for this setting: 10 μM, secondary screening of 87 hit compounds (Table S1), compared to vehicle control.
Where [11] appears, read: Homo sapiens, 72 h, 0.01 μM (first column so headed), third screening of 25 hit compounds (Table S2), compared to vehicle control, read-out: Invasion rates (%) of each drug’s multiple concentrations.
[12] abbreviates: Homo sapiens, 72 h, 0.01 μM (second column so headed), third screening of 25 hit compounds (Table S2), compared to vehicle control, read-out: Invasion rates (%) of each drug’s multiple concentrations.
[13] abbreviates: Homo sapiens, 72 h, 0.1 μM, third screening of 25 hit compounds (Table S2), compared to vehicle control, read-out: Invasion rates (%) of each drug’s multiple concentrations.
Setting [14] is: Homo sapiens, 72 h, 1 μM, third screening of 25 hit compounds (Table S2), compared to vehicle control, read-out: Invasion rates (%) of each drug’s multiple concentrations.
Setting [15] is: Homo sapiens, 72 h, 10 μM, third screening of 25 hit compounds (Table S2), compared to vehicle control, read-out: Invasion rates (%) of each drug’s multiple concentrations.

As to `Cc1ncc([N+](=O)[O-])n1CCO` [Metronidazole], the activity at 0.01 µM under setting [1] came out at 93.6% and the activity at 0.01 µM under setting [2] was found to be 93.9%. In addition, the activity at 0.1 µM under setting [3] stood at 94.1%. In addition, the activity at 1 µM under setting [4] came out at 85.7%. Under setting [5], the activity at 10 µM stood at 10.1%.
In the case of `CO[C@@H]1[C@H](N(C)C(=O)c2ccccc2)C[C@H]2O[C@]1(C)n1c3ccccc3c3c4c(c5c6ccccc6n2c5c31)C(=O)NC4` [Midostaurin], the activity at 0.01 µM came out at 97.5% under setting [1] and 98.7% under setting [2]. Under setting [3], the activity at 0.1 µM was 96%. Also, under setting [4], the activity at 1 µM was determined as 95.8%. The activity at 10 µM under setting [5] was determined as 34.3%.
`CN(C)c1ccc(O)c2c1C[C@H]1C[C@H]3[C@H](N(C)C)C(=O)C(C(N)=O)=C(O)[C@@]3(O)C(=O)C1=C2O.Cl` [Minocycline (hydrochloride)]: the “Invasion rates (%) of each drug’s multiple concentrations (μM)” value (“Invasion rates (%)” for short) reads like this: under setting [6], 87.07%; under setting [7], 98.27%; under setting [8], 80.93%; under setting [9], 62.17%; under setting [10], 5.40%.
As a reminder, the inhibition is the share of the control response that was lost under treatment. `CO[C@@]12[C@H](COC(N)=O)C3=C(C(=O)C(C)=C(N)C3=O)N1C[C@@H]1N[C@@H]12` [Mitomycin C]: the activity at 0.01 µM is 4.12% under setting [1], 41.6% under setting [11], 39.7% under setting [2] and 93.2% under setting [12]. The activity at 0.1 µM runs as follows: under setting [3], 4.9%; under setting [13], 2.22%. Besides, the activity at 1 µM stood at 3.56% under setting [4] and 1.49% under setting [14]. Also, the activity at 10 µM under setting [5] was 2.5% and the activity at 10 µM under setting [15] was found to be 0.24%. In addition, the inhibition at 0.1 µM (Homo sapiens, at 0.1 μM, read-out: inhibition of cell invasion) is greater than 50%.
Turning to `Cl.Cl.O=C1c2c(O)ccc(O)c2C(=O)c2c(NCCNCCO)ccc(NCCNCCO)c21` [Mitoxantrone (dihydrochloride)], the “Invasion rates (%)” value is reported as 88.48% under setting [6]; 95.77% under setting [7]; 89.03% under setting [8]; 87.29% under setting [9]; 31.96% under setting [10].
As to `Cc1ncc([N+](=O)[O-])n1CC(O)CN1CCOCC1` (stereo not shown) [Morinidazole], the activity at 0.01 µM was determined as 83.3% under setting [1] and 89.7% under setting [2]. The activity at 0.1 µM under setting [3] worked out at 75.5%. For the same compound, under setting [4], the activity at 1 µM is 60%. For the same compound, the activity at 10 µM under setting [5] was found to be 4%.
Consider `C/C(=C\C(=O)OCCCCCCCCC(=O)O)C[C@@H]1OC[C@H](C[C@@H]2O[C@H]2[C@@H](C)[C@H](C)O)[C@@H](O)[C@H]1O` [Mupirocin], for which the activity at 0.01 µM stood at 95.2% under setting [1] and 98% under setting [2]. For the same compound, the activity at 0.1 µM under setting [3] stood at 95.3%. For the same compound, under setting [4], the activity at 1 µM turned out to be 80%. Further, under setting [5], the activity at 10 µM turned out to be 5.95%.
For `CC1CCc2c(N3CCC(O)CC3)c(F)cc3c(=O)c(C(=O)O)cn1c23` (stereo not shown) [Nadifloxacin], the activity at 0.01 µM is 102% under setting [1] and 104% under setting [2]. Further, the activity at 0.1 µM under setting [3] worked out at 101%. Besides, under setting [4], the activity at 1 µM was 100%. Moreover, under setting [5], the activity at 10 µM came to 1.03%.
`O=C(N/N=C/c1ccc([N+](=O)[O-])o1)c1ccc(O)cc1` [Nifuroxazide]: the activity at 0.01 µM under setting [1] was determined as 68.1%, the activity at 0.01 µM under setting [11] came to 97.2%, the activity at 0.01 µM under setting [2] was 86.4% and the activity at 0.01 µM under setting [12] is 94.3%. Further, the activity at 0.1 µM is, setting by setting: under setting [3], 50.2%; under setting [13], 86.5%. The activity at 1 µM under setting [4] turned out to be 9.13% and the activity at 1 µM under setting [14] was determined as 7.31%. The activity at 10 µM by setting is: under setting [5], 2.06%; under setting [15], 1.51%.
For the compound `CC1CS(=O)(=O)CCN1/N=C/c1ccc([N+](=O)[O-])o1` (stereo not shown) [Nifurtimox], the activity at 0.01 µM came to 96.2% under setting [1], 97% under setting [11], 96.2% under setting [2] and 97.5% under setting [12]. Also, the activity at 0.1 µM was 78.6% under setting [3] and 93.5% under setting [13]. Besides, the activity at 1 µM under setting [4] turned out to be 32.4% and the activity at 1 µM under setting [14] is 5.05%. The activity at 10 µM by setting is: under setting [5], 1.95%; under setting [15], 0.53%.
As for `COC(=O)c1ccc2c(c1)NC(=O)/C2=C(\Nc1ccc(N(C)C(=O)CN2CCN(C)CC2)cc1)c1ccccc1` [Nintedanib], the activity at 0.01 µM by setting is: under setting [1], 98.1%; under setting [2], 98.3%. In addition, the activity at 0.1 µM under setting [3] stood at 97.5%. Also, under setting [4], the activity at 1 µM was 95.2%. Under setting [5], the activity at 10 µM was 36.2%.
As to `NC(=O)N/N=C/c1ccc([N+](=O)[O-])o1` [Nitrofurazone], the activity at 0.01 µM under setting [1] was determined as 94.8%. Further, the activity at 0.1 µM under setting [3] is 80.4%. Also, the activity at 1 µM under setting [4] was 70.7%. The activity at 10 µM under setting [5] turned out to be 6.3%. In addition, under “Homo sapiens, 72 h, secondary screening of 87 hit compounds (Table S1), compared to vehicle control, read-out: Invasion rates (%) of each drug’s multiple concentrations”, the activity was 98.8%.
As to `CCCCCCCCN=c1ccn(CCCCCCCCCCn2ccc(=NCCCCCCCC)cc2)cc1.Cl.Cl` [Octenidine (dihydrochloride)], the “Invasion rates (%)” value was 97.90% under setting [6]; 100.69% under setting [7]; 97.53% under setting [8]; 95.54% under setting [9]; 46.51% under setting [10].
Taken in the same sequence, the figures for `Cc1ncc([N+](=O)[O-])n1CC(O)CCl` (stereo not shown) [Ornidazole (Levo-)] were 90.43%, 93.59%, 87.04%, 71.01% and 4.84%.
`C=CC(=O)Nc1cc(Nc2nccc(-c3cn(C)c4ccccc34)n2)c(OC)cc1N(C)CCN(C)C` [Osimertinib]: the activity at 0.01 µM runs as follows: under setting [1], 89%; under setting [2], 98.8%. For the same compound, the activity at 0.1 µM under setting [3] came out at 86.4%. Also, the activity at 1 µM under setting [4] stood at 83.8%. The activity at 10 µM under setting [5] worked out at 5.6%.
The like results for `CN(C)[C@@H]1C(O)=C(C(N)=O)C(=O)[C@@]2(O)C(O)=C3C(=O)c4c(O)cccc4[C@@](C)(O)[C@H]3[C@H](O)[C@@H]12` [Oxytetracycline] were, in that order, 84.1%, 91%, 82.2%, 71.3% and 8.26%.
For the compound `CNc1ncc(-c2ccc3c(=O)c(C(=O)O)cn(C4CC4)c3c2C)cc1C` [Ozenoxacin], the “Invasion rates (%)” value is, setting by setting: under setting [6], 96.05%; under setting [7], 100.15%; under setting [8], 94.32%; under setting [9], 88.16%; under setting [10], 4.14%.
For the compound `COc1cccc2c1C(=O)c1c(O)c3c(c(O)c1C2=O)C[C@@](O)(C(=O)CO)C[C@@H]3O[C@H]1C[C@H](N)[C@H](O[C@@H]2CCCCO2)[C@H](C)O1.Cl` [Pirarubicin (Hydrochloride)], the “Invasion rates (%)” value was found to be 87.28% under setting [6]; 91.46% under setting [7]; 86.00% under setting [8]; 81.69% under setting [9]; 10.50% under setting [10].
